From US8476430B2, “Fused heterocyclic compounds useful as kinase modulators” (Bristol-Myers Squibb Company, priority 2008, dated 2013)

Columns and labels:
human recombinant Btk = molecular target: T1, human recombinant Btk (Homo sapiens, UniProt Q06187); assay: Human recombinant Btk enzyme assay; format: biochemical; settings: human recombinant Btk 1 nM, ATP 20 μM, 60 min room temperature
T1 construct: purchased Invitrogen Corporation
Description: Human Recombinant Btk Enzyme Assay
To V-bottom 384-well plates were added test compounds, human recombinant Btk (1 nM, Invitrogen Corporation), fluoresceinated peptide (1.5 μM), ATP (20 μM), and assay buffer (20 mM HEPES pH 7.4, 10 mM MgCl2, 0.015% Brij35 and 4 mM DTT in 1.6% DMSO), with a final volume of 30 μL. After incubating at room temperature for 60 min, the reaction was terminated by adding 45 μl of 35 mM EDTA to each sample. The reaction mixture was analyzed on the Caliper LABCHIP® 3000 (Caliper, Hopkinton, Mass.) by electrophoretic separation of the fluorescent substrate and phosphorylated product. Inhibition data were calculated by comparison to no enzyme control reactions for 100% inhibition and no inhibitor controls for 0% inhibition. Dose response curves were generated to determine the concentration required inhibiting 50% of kinase activity (IC50). Compounds were dissolved at 10 mM in dimethylsulfoxide (DMSO) and evaluated at eleven concentrations.

Ramos RA1 B cells = assay: Ramos FLIPR assay; format: cell-based; settings: Homo sapiens, inhibition of peak intracellular calcium after F(ab')2 anti-IgM/IgG stimulation, read-out: Human Ramos Cell FLIPR (IC50 μM)
Description: Ramos RA1 B cells (ATCC® CRL-1596) at a density of 2×10^6 cells/ml in RPMI minus phenol red (Invitrogen 11835-030) and 50 mM HEPES (Invitrogen 15630-130) containing 0.1% BSA (Sigma A8577) were added to one half volume of calcium loading buffer (BD bulk kit for probenecid sensitive assays, #640177) and incubated at room temperature in the dark for 1 hour. Dye-loaded cells were pelleted (Beckmann GS-CKR, 1200 rpm, RT, 5 minutes) and resuspended in RT RPMI minus phenol red with 50 mM HEPES and 10% FBS to a density of 1×10^6 cells/ml. 150 μl aliquots (150,000/well) were plated into 96 well poly-D-lysine coated assay plates (BD 35 4640) and briefly centrifuged (Beckmann GS-CKR 800 rpm, 5 minutes, without brake). 50 μal compound dilutions in 0.4% DMSO/RPMI minus phenol red+50 mM HEPES+10% FBS were added to the wells and the plate was incubated at RT in the dark for 1 hour. Assay plate was briefly centrifuged as above prior to measuring calcium levels.
Using the FLIPR1 (Molecular devices), cells were stimulated by adding 50 μl 200 μg/ml F(ab′)2 anti-IgM/IgG (Jackson ImmunoResearch 109-006-127) diluted in 1×HBSS (Invitrogen 14025-076), 50 mM HEPES, 0.1% BSA. Changes in intracellular calcium concentrations were measured for 180 seconds and percent inhibition was determined relative to peak calcium levels seen in the presence of F(ab′)2 anti-IgM/IgG only.

T1 sequence (Q06187 whole entry): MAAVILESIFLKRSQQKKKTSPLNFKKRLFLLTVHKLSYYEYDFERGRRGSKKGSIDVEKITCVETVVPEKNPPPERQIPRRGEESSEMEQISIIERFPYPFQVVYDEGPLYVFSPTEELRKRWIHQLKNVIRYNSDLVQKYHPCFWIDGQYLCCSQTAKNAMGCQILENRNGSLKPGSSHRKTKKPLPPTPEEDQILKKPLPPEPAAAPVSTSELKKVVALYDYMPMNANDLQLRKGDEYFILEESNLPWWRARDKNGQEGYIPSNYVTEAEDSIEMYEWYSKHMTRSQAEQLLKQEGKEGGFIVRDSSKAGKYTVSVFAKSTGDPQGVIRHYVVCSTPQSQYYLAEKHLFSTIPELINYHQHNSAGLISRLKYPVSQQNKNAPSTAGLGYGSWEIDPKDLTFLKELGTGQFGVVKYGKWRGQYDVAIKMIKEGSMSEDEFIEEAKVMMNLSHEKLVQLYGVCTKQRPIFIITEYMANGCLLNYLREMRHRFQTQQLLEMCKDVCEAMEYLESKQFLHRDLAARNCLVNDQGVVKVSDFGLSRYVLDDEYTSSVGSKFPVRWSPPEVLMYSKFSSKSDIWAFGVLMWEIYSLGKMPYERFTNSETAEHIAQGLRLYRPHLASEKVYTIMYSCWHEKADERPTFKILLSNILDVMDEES

**Q.** How did the IC50 (human recombinant Btk) turn out when `Cc1c(NC(=O)c2ccc(C(C)(C)C)cc2)cccc1-c1nc(Nc2ccc(C(=O)N3CCOCC3)cc2)c2nccn2n1` [Example 1, 4-tert-Butyl-N-(2-methyl-3-(4-(4-(morpholine-4-carbonyl)phenylamino)imidazo[1,2-f][1,2,4]triazin-2-yl)phenyl)benzamide] was run?
**A.** 46 nM

**Q.** And the IC50 (Ramos RA1 B cells)?
**A.** 0.028 µM
